We go through 39 molecules from US9663478B2, “Benzotriazine oxides as drugs targeting Mycobacterium tuberculosis” (priority 2011, dated 2017).

Converted amounts (≈) assume the structure as drawn. Bounds are passed on as bounds.

Series [1] has as its system Mtb H37Rv. Kind of series: TB MIC - SRI, resazurin-based microplate assay. In kind it is cell-based, Mycobacterium tuberculosis. To be noted: Mycobacterium tuberculosis, H37RV.
Series [2] relates to Vero cells. To be noted: for VERO Tox-SRI: African green monkey, 72 h.
Series [3] concerns Mtb H37Rv. Kind of series: TB MIC - ITR (UIC), Institute for Tuberculosis Research. The series is classed as cell-based, Mycobacterium tuberculosis. To be noted: for MIC: Mycobacterium tuberculosis, H37RV, Tables 1-4, read-out: TB MIC - ITR.
Series [4] deals with NRP Mtb H37Rv cells. Kind of series: Low-oxygen recovery assay (LORA) MIC. In kind it is cell-based, Mycobacterium tuberculosis. To be noted: for MIC: Mycobacterium tuberculosis, H37RV, NRP Mtb, Tables 1-4 and text, read-out: LORA MIC - ITR.
Setting [5] is: Tables P1-P3, read-out: TB MIC - SRI.
The mark [6] stands for this setting: Tables 1-4 and text, read-out: TB MIC - SRI.
Where [7] appears, read: Table P4, read-out: Activity against H37Rv.
Where [8] appears, read: read-out: Activity against H37Rv, Table P4.
Where [9] appears, read: read-out: TB MIC - SRI, Tables P1-P3.

For `Cc1cccc2c1[n+]([O-])c(NC1CCC1)n[n+]2[O-]` [SRI-012460], in series [1] (setting [5]), the MIC turned out to be 0.312 µg/mL (≈ 1.27 µM). Also, the “VERO Tox-SRI” value in series [2] was found to be 21.8. Consider `[O-][n+]1nc(NC2CCCC2)[n+]([O-])c2ccc(Br)cc21` [SRI-012466], for which, in series [1] (setting [5]), the MIC is 0.156 µg/mL (≈ 0.48 µM). `[O-][n+]1nc(NC2CCC2)[n+]([O-])c2ccc(Br)cc21` [SRI-012465]: the MIC in series [1] (setting [5]) came to 0.156 µg/mL (≈ 0.501 µM). For the molecule `CN(CCc1ccccc1)c1n[n+]([O-])c2cc3c(cc2[n+]1[O-])CCC3` [SRI-012565], in series [1] (setting [5]), the MIC came to 0.312 µg/mL (≈ 0.927 µM). For `[O-][n+]1nc(NC2CCCCC2)[n+]([O-])c2ccccc21` [Compound 8f, 3-(cyclohexylamino)benzo[e][1,2,4]triazine 1,4-dioxide], the figures for the MIC in series [3], in series [4] and in series [1] (setting [6]) were 3.8 µg/mL (≈ 14.6 µM), 0.75 µg/mL (≈ 2.88 µM) and 2.5 µg/mL (≈ 9.6 µM), respectively. Regarding `O=S1(=O)CCN(c2n[n+]([O-])c3cc4c(cc3[n+]2[O-])CCC4)CC1` [SRI-012566], the MIC in series [1] (setting [7]) and in series [1] (setting [5]) was 5 µg/mL (≈ 14.9 µM) throughout. As to `CCNc1n[n+]([O-])c2cc(C)c(OC)cc2[n+]1[O-]` [SRI-012468], in series [2], the “VERO Tox-SRI” value is reported as 100. On to `Nc1n[n+]([O-])c2cc3c(cc2[n+]1[O-])CCC3` [SRI-012398], for which the MIC in series [1] (setting [5]) came out at 2.5 µg/mL (≈ 11.5 µM).

Take `COc1cc2c(cc1C)[n+]([O-])nc(N[C@@H]1C[C@H]3CC[C@@H]1C3)[n+]2[O-]` [SRI-012470]: the “VERO Tox-SRI” value in series [2] is given as 50. `CCNc1n[n+]([O-])c2cc(F)ccc2[n+]1[O-]` [Compound 15aa, 3-(ethylamino)-7-fluorobenzo[e][1,2,4]triazine 1,4-dioxide]: the MIC in series [3] was found to be 0.35 µg/mL (≈ 1.56 µM); in series [4] it was 0.75 µg/mL (≈ 3.35 µM); in series [1] (setting [6]), 0.62 µg/mL (≈ 2.77 µM). For the molecule `[O-][n+]1nc(NC2CCC2)[n+]([O-])c2ccc(Cl)cc21` [Compound 15bd, 7-chloro-3-(cyclobutylamino)benzo[e][1,2,4]triazine 1,4-dioxide], the MIC in series [4] was under 0.12 µg/mL; in series [1] (setting [6]), 0.15 µg/mL (≈ 0.562 µM).

Take `[O-][n+]1nc(NC2CCCCCC2)[n+]([O-])c2ccccc21` [Compound 8g, 3-(cycloheptylamino)benzo[e][1,2,4]triazine 1,4-dioxide]: the results for the MIC in series [3], in series [4] and in series [1] (setting [6]) were 1.6 µg/mL (≈ 5.83 µM), 0.5 µg/mL (≈ 1.82 µM) and 2.5 µg/mL (≈ 9.11 µM), respectively.

For the molecule `CC(C)(C)C1CCC(Nc2n[n+]([O-])c3ccccc3[n+]2[O-])CC1` (centres unmarked) [Compound 8j, 3-((4-(tert-butyl)cyclohexyl)amino)benzo[e][1,2,4]triazine 1,4-dioxide], the MIC is 0.22 µg/mL (≈ 0.695 µM) in series [3], under 0.12 µg/mL in series [4] and 0.62 µg/mL (≈ 1.96 µM) in series [1] (setting [6]). Consider `[O-][n+]1nc(N2CCCC2)[n+]([O-])c2cc3c(cc21)CCC3` [SRI-012530], for which the results for the MIC in series [1] (setting [8]) and in series [1] (setting [9]) were 0.62 µg/mL (≈ 2.28 µM) and 0.625 µg/mL (≈ 2.3 µM), respectively. As for `CCNc1n[n+]([O-])c2cc3c(cc2[n+]1[O-])CCCC3` [SRI-012496], the MIC in series [1] (setting [8]) and in series [1] (setting [9]) was 1.25 µg/mL (≈ 4.8 µM) each time. For the same molecule, the “VERO Tox-SRI” value in series [2] amounted to 21.78.

As to `CS(=O)(=O)N1CCN(c2n[n+]([O-])c3cc4c(cc3[n+]2[O-])CCC4)CC1` [SRI-012568], the MIC in series [1] (setting [7]) and in series [1] (setting [5]) was 5 µg/mL (≈ 13.7 µM) each time. In the case of `C[C@@H]1[C@H]2C[C@@H](C[C@H]1Nc1n[n+]([O-])c3cc(F)ccc3[n+]1[O-])C2(C)C` (racemic) [SRI-012402], in series [1] (setting [5]), the MIC was found to be 0.312 µg/mL (≈ 0.939 µM). For `COc1cc2c(cc1C)[n+]([O-])nc(NC1CCC1)[n+]2[O-]` [SRI-012469], the “VERO Tox-SRI” value in series [2] came out at 50.

With `CN(Cc1ccccc1)c1n[n+]([O-])c2cc3c(cc2[n+]1[O-])CCC3` [SRI-012564], in series [1] (setting [5]), the MIC came to 0.312 µg/mL (≈ 0.968 µM). For the molecule `CC(C)CCC(C)Nc1n[n+]([O-])c2ccccc2[n+]1[O-]` (centres unmarked) [Compound 8l, 3-((5-methylhexan-2-yl)amino)benzo[e][1,2,4]triazine 1,4-dioxide], the MIC amounted to 0.52 µg/mL (≈ 1.88 µM) in series [3], 0.38 µg/mL (≈ 1.38 µM) in series [4] and 1.2 µg/mL (≈ 4.34 µM) in series [1] (setting [6]).

As to `CC1CCCCN1c1n[n+]([O-])c2cc3c(cc2[n+]1[O-])CCC3` (centres unmarked) [SRI-012567], the MIC in series [1] (setting [7]) and in series [1] (setting [5]) was 1.25 µg/mL (≈ 4.16 µM) each time.

Take `[O-][n+]1nc(N[C@@H]2C[C@H]3CC[C@@H]2C3)[n+]([O-])c2ccc(Cl)cc21` (racemic) [SRI-012305]: in series [3] (Tables P1, P2), the TB MIC - UIC was under 0.125 µg/mL. The same molecule had an LORA MIC in series [4] (Tables P1, P2, non-replicating M. tuberculosis) of 0.2 µg/mL. Further, the MIC in series [1] (setting [5]) was determined as 0.156 µg/mL (≈ 0.509 µM). For `CCNc1n[n+]([O-])c2cc(OC)ccc2[n+]1[O-]` [Compound 15da, 3-(ethylamino)-7-methoxybenzo[e][1,2,4]triazine 1,4-dioxide], the MIC came to 15 µg/mL (≈ 63.5 µM) in series [3], 16 µg/mL (≈ 67.7 µM) in series [4] and 2.5 µg/mL (≈ 10.6 µM) in series [1] (setting [6]). Regarding `CCNc1n[n+]([O-])c2cc(Br)ccc2[n+]1[O-]` [SRI-012464], the MIC in series [1] (setting [5]) is 0.625 µg/mL (≈ 2.19 µM). As for `[O-][n+]1nc(NC2CCC2)[n+]([O-])c2ccccc21` [Compound 8d, 3-(cyclobutylamino)benzo[e][1,2,4]triazine 1,4-dioxide], the MIC stood at 0.94 µg/mL (≈ 4.05 µM) in series [3], 0.84 µg/mL (≈ 3.62 µM) in series [4] and 1.2 µg/mL (≈ 5.17 µM) in series [1] (setting [6]).

With `CN(C)c1n[n+]([O-])c2cc3c(cc2[n+]1[O-])CCC3` [SRI-012563], the MIC in series [1] (setting [5]) was found to be 0.625 µg/mL (≈ 2.54 µM). In the case of `[O-][n+]1nc(NC2CCCCC2)[n+]([O-])c2ccc(F)cc21` [Compound 15af, 3-(cyclohexylamino)-7-fluorobenzo[e][1,2,4]triazine 1,4-dioxide], the MIC in series [3] turned out to be 0.68 µg/mL (≈ 2.44 µM); in series [4] it was 0.47 µg/mL (≈ 1.69 µM); in series [1] (setting [6]), 0.62 µg/mL (≈ 2.23 µM). Regarding `[O-][n+]1nc(N2CCCCC2)[n+]([O-])c2cc3c(cc21)CCC3` [SRI-012562], the MIC in series [1] (setting [5]) came out at 0.625 µg/mL (≈ 2.18 µM). `Cc1cccc2c1[n+]([O-])c(NC1CCCC1)n[n+]2[O-]` [Compound 15ee, 3-(cyclopentylamino)-5-methylbenzo[e][1,2,4]triazine 1,4-dioxide]: the MIC in series [3] is 0.43 µg/mL (≈ 1.65 µM); in series [4] it was 0.27 µg/mL (≈ 1.04 µM); in series [1] (setting [6]) it was 0.31 µg/mL (≈ 1.19 µM). Regarding `CCNc1n[n+]([O-])c2cc(C)c(C)cc2[n+]1[O-]` [SRI-012399], in series [1] (setting [5]), the MIC came to 2.5 µg/mL (≈ 10.7 µM). As for `CC(C)(C)C1CCC(Nc2n[n+]([O-])c3cc(F)ccc3[n+]2[O-])CC1` (centres unmarked) [SRI-012401], the MIC in series [1] (setting [5]) came out at 0.312 µg/mL (≈ 0.933 µM). As to `CSc1c(C)[n+]([O-])c2ccccc2[n+]1[O-]` [Cmpd 3], the “Vero Tox CC50” value in series [2] was over 16 µg/mL. On to `Cc1cccc2c1[n+]([O-])c(N)n[n+]2[O-]` [SRI-012397], for which, in series [1] (setting [5]), the MIC came to 0.625 µg/mL (≈ 3.25 µM). On the same count and under the same terms, the result for `COc1ccc2c(c1)[n+]([O-])nc(N[C@@H]1C[C@H]3CC[C@@H]1C3)[n+]2[O-]` [SRI-012462] reads 0.625 µg/mL (≈ 2.07 µM). Take `[O-][n+]1nc(NC2CCCC2)[n+]([O-])c2ccc(F)cc21` [Compound 15ae, 3-(cyclopentylamino)-7-fluorobenzo[e][1,2,4]triazine 1,4-dioxide]: the MIC in series [3] amounted to 0.33 µg/mL (≈ 1.25 µM); in series [4], 0.34 µg/mL (≈ 1.29 µM); in series [1] (setting [6]) it was 0.31 µg/mL (≈ 1.17 µM). For the molecule `[O-][n+]1nc(N2CCCC2)[n+]([O-])c2ccccc21` [SRI-012495], the TB MIC - UIC in series [3] (Table P3) stood at 17.4 µg/mL. Moreover, in series [1] (setting [5]), the MIC worked out at 0.312 µg/mL (≈ 1.34 µM).

For the molecule `CCN(CC)c1n[n+]([O-])c2ccccc2[n+]1[O-]` [SRI-009728], the TB MIC - UIC in series [3] (Table P3) came out at 12.4 µg/mL. Besides, in series [1] (setting [5]), the MIC was 0.312 µg/mL (≈ 1.33 µM).

Regarding `CC(C)(C)Nc1n[n+]([O-])c2ccccc2[n+]1[O-]` [SRI-003356], the MIC in series [1] (setting [9]) stood at 1.25 µg/mL (≈ 5.34 µM).

Consider `Nc1n[n+]([O-])c2cc(Br)ccc2[n+]1[O-]` [SRI-012396], for which the MIC in series [1] (setting [5]) was 1.25 µg/mL (≈ 4.86 µM).
